Earlier results as cited in patent US20250387447A1, “Herbal composition for use in the improvement of physical and mental health recovery and maintenance, including the improvement of cognitive function or prevention of cognitive decline” (Conka Elite Ltd, priority 2022, published 2025).

Test system: neurons

COc1cc(/C=C/C(=O)CC(=O)/C=C/c2ccc(O)c(OC)c2)ccc1O [curcumin]
neuron death caused by oxygen-glucose deprivation: protects neurons from death | expression of thioredoxin (Nrf2 pathway): activate the expression of thioredoxin
